Assay results from publication PMC4672351, “Drug-Drug Interaction Potentials of Tyrosine Kinase Inhibitors via Inhibition of UDP-Glucuronosyltransferases” (Scientific Reports, 2015).

Tests used:
[1] = target: T1, UGT1A6 (Homo sapiens, UniProt P19224); test: Inhibition of 4-MU glucuronidation by recombinant UGT1A6; type: in vitro ADME; conditions: recombinant UGT1A6, pH 7.4, probe 4-MU, 100 μM inhibitor, 4-MU substrate, positive control diclofenac, read-out: Remaining activities (%) of UGT1A6
T1 construct: purchased BD Gentest (Woburn, MA); host or cells: baculovirus-infected insect cells
T1 sequence (P19224 27-532): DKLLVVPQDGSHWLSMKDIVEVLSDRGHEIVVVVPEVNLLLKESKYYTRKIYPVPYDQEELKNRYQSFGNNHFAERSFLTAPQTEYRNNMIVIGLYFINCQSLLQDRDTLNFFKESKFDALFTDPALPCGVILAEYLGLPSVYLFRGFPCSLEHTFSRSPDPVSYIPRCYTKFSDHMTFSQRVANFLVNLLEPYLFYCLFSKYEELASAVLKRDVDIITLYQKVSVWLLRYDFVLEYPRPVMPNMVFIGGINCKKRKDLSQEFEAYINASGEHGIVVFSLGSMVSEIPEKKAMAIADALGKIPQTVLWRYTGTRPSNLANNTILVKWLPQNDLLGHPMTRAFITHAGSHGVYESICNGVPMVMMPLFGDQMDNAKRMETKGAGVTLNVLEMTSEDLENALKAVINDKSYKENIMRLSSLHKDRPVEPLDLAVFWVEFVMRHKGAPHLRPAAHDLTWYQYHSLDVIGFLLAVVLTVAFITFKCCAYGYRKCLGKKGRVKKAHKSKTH

[2] = target: T2, UGT2B4 (Homo sapiens, UniProt P06133); test: Inhibition of 4-MU glucuronidation by recombinant UGT2B4; type: in vitro ADME; conditions: recombinant UGT2B4, pH 7.4, probe 4-MU, 100 μM inhibitor, 4-MU substrate, read-out: Remaining activities (%) of UGT2B4
T2 construct: purchased BD Gentest (Woburn, MA); host or cells: baculovirus-infected insect cells
T2 sequence (P06133 24-528): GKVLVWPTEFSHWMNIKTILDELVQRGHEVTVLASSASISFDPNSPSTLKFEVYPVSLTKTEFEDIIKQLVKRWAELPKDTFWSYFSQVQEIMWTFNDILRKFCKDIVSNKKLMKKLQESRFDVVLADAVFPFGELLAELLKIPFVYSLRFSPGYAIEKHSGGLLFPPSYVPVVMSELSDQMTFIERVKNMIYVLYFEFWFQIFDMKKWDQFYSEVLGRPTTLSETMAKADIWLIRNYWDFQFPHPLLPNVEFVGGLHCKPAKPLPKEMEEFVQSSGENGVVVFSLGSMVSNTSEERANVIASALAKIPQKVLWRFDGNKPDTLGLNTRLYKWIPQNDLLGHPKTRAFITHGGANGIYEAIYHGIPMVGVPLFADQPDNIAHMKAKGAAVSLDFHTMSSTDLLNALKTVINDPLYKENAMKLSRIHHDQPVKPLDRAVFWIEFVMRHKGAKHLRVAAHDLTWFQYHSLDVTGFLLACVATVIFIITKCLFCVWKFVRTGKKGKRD

[3] = target: T3, UGT1A1 (Homo sapiens, UniProt P22309); test: Inhibition of 4-MU glucuronidation by recombinant UGT1A1; conditions: for activity at 120 min, 100 µM: human, recombinant UGT1A1, pH 7.4, probe 4-MU
T3 sequence (P22309 26-533): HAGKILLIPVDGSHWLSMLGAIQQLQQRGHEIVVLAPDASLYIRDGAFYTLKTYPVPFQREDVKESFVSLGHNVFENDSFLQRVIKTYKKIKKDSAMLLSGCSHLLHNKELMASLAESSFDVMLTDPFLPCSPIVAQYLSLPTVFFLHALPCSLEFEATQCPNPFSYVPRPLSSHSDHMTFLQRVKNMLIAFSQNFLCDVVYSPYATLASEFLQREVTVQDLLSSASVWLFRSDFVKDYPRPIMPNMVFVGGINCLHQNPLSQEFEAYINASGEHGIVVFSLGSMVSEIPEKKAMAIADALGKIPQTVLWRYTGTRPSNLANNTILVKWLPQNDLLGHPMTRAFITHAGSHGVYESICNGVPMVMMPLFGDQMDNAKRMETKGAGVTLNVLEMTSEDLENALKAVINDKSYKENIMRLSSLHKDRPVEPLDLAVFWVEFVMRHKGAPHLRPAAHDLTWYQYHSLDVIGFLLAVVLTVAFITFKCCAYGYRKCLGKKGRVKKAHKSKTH

[4] = target: T4, UGT2B7 (Homo sapiens, UniProt P16662); test: Inhibition of 4-MU glucuronidation by recombinant UGT2B7; conditions: recombinant UGT2B7, pH 7.4, probe 4-MU
T4 sequence (P16662 24-529): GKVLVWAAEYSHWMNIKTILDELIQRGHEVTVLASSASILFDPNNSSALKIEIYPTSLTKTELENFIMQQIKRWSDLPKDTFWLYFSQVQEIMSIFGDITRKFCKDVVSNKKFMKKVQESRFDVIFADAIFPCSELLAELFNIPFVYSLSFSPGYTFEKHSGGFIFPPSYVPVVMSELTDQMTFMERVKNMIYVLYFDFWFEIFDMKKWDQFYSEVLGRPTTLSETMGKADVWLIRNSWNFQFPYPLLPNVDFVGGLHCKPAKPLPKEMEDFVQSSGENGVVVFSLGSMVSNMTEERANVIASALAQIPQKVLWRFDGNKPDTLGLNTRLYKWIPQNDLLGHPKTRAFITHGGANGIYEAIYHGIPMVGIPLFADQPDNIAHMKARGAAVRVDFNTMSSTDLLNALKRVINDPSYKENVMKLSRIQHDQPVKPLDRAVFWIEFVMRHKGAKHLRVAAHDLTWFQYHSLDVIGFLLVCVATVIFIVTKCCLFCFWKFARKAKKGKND

[5] = target: T5, UGT2B17 (Homo sapiens, UniProt O75795); test: Inhibition of 4-MU glucuronidation by recombinant UGT2B17; conditions: recombinant UGT2B17, pH 7.4, probe 4-MU
T5 sequence (O75795 24-530): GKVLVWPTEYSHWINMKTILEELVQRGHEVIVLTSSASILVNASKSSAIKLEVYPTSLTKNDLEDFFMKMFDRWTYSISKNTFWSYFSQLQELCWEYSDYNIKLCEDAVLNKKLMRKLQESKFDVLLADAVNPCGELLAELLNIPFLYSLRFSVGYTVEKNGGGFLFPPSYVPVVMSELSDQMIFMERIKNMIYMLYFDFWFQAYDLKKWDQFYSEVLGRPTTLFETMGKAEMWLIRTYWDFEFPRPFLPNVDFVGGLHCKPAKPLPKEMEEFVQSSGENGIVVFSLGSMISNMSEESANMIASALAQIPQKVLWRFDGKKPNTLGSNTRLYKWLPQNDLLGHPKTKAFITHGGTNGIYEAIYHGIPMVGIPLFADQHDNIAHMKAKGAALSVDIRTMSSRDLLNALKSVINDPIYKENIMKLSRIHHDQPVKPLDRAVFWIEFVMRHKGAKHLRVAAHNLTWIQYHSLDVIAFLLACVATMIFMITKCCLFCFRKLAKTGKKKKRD

For `CNC(=O)c1ccccc1Sc1ccc2c(/C=C/c3ccccn3)n[nH]c2c1` [Axitinib, axitinib], the activity at 30 min, 100 µM [1] was 85.8 ± 3.5%, the activity at 120 min, 100 µM [2] was 42.1 ± 1.6% and the activity at 120 min, 100 µM [3] was 56.7 ± 3.4%. For the same compound, the activity at 120 min, 100 µM [4] was 55.9 ± 9.7% and the activity at 120 min, 100 µM [5] was 55.9 ± 0.3%.
For `COc1cc2c(Nc3ccc(Br)cc3F)ncnc2cc1OCC1CCN(C)CC1` [Vandetanib, vandetanib], the activity at 30 min, 100 µM [1] was 55.1 ± 1.1%, the activity at 120 min, 100 µM [2] was 80.8 ± 6.6% and the activity at 120 min, 100 µM [3] was 48.9 ± 4.9%. It also gave an activity at 120 min, 100 µM [4] of 49.8 ± 3.7% and an activity at 120 min, 100 µM [5] of 69.7 ± 3.1%.
With `CS(=O)(=O)CCNCc1ccc(-c2ccc3ncnc(Nc4ccc(OCc5cccc(F)c5)c(Cl)c4)c3c2)o1` [Lapatinib, lapatinib] the activity at 30 min, 100 µM [1] was 88.4 ± 5.9%, the activity at 120 min, 100 µM [2] was 105.1 ± 0.2% and the “inhibition type, UGT1A1” value ([3]; 4-MU substrate) was “competitive”. The activity at 120 min, 100 µM [3] was 30.8 ± 11%, the activity at 120 min, 100 µM [4] was 90.5 ± 1% and the activity at 120 min, 100 µM [5] was 94.8 ± 5.7%.
